Assay results taken from patent US20050260150A1, “Polyol polyester-containing personal care products that do not contain low viscosity silicone fluids” (INOLEX INVESTMENT CORP., priority 2004, published 2005).

Assays:
[1] = Spreading characteristics on WHATMAN filter paper (50 microliters); assay type: physicochemical; conditions: for Spreadibility (1 minute) / Spreadibility (3 minutes) / Spreadibility (5 minutes): 50 microliters on filter paper
Protocol: The spreading characteristics of fluid used in personal care products are an effective predictor of “skin feel.” To test the spreading characteristics a four inch WHATMAN® filter paper was positioned horizontally over an eight ounce jar. Fifty microliters of each product were then pipetted onto the center of the filter paper. The spreading area of the liquid was then measured at intervals of one, three, and five minutes. Faster spreading products will have a higher spreading area at each time interval.

[2] = Kinematic viscosity at 25° C. (ASTM D-445-97); assay type: physicochemical
Protocol: Kinematic viscosity was tested at 25° C. using ASTM (American Society of Testing and Materials, West Conshohocken, Pa., United States of America) Official Method No. D-445-97 (1997), the contents of which are incorporated herein by reference. Color was measured using ASTM D-1209-97 (1997), acid value was determined using ASTM D-972-95 (1995) and hydroxyl number was determined using a modified version of AOCS (American Oil Chemists Society, Champaign, Ill., United States of America) Official Method No. Cd-13-60 (1997), the contents of which are incorporated herein by reference. Odor was determined using a subjective olfactory assessment.

Structure (SMILES) | Spreadibility (1 minute) [1] [cm] | Spreadibility (3 minutes) [1] [cm] | Spreadibility (5 minutes) [1] [cm] | Viscosity at 25° C. [2] [cSt] | Spreadibility (1 minute) ([1]; listed as D5 Fluid) [cm] | Spreadibility (3 minutes) ([1]; listed as D5 Fluid) [cm] | Spreadibility (5 minutes) ([1]; listed as D5 Fluid) [cm] | spreading (in words) ([1]; stated in description) | viscosity ([2]; stated in description) [centistokes]
CCCCCC(=O)OCCOCCOC(=O)CCCCC [DEGDH, diethylene glycol dihexanoate] | 2.98 | 3.43 | 3.68 | 14.4 | – | – | – | – | –
C[Si]1(C)O[Si](C)(C)O[Si](C)(C)O[Si](C)(C)O1 [Example D4, reference compound] | 3.10 | 3.50 | 3.60 | – | – | – | – | – | –
C[Si]1(C)O[Si](C)(C)O[Si](C)(C)O[Si](C)(C)O[Si](C)(C)O1 [Example D5, reference compound] | 2.90 | 3.40 | 3.60 | 4.0 | 2.9 | 3.4 | 3.6 | – | –
CCC(CC)C(=O)OCC(C)(C)COC(=O)C(CC)CC [ND2EB, neopentyl glycol di-2-ethylbutyrate] | 3.00 | 3.43 | 3.63 | 7.6 | – | – | – | – | –
CC(C)C(=O)OCC(C)(C)COC(=O)C(C)C [NDI] | 3.18 | 3.63 | 3.88 | 3.5 | – | – | – | – | –
CCCCC(=O)OCC(C)(C)COC(=O)CCCC [NDP, neopentyl glycol dipentanoate] | 3.08 | 3.48 | 3.85 | 5.1 | – | – | – | rapidly spreading | 5.1
